Experimental data published in patent publication US20090258849A1, “NITROOXY DERIVATIVES OF GLUCOCORTICOIDS” (Nicox S.A., priority 2005, published 2009).

Legend:
TPA-induced ear oedema = assay: Inhibition of TPA-induced ear oedema after topical administration; assay type: in vivo, male Swiss mice; details: TPA 2 μg/ear, topical 20 μL of 0.39 nM solution in ethanol 15 min before TPA, ear weight change; for % inhibition 3 hours post-treatment: 3 h post TPA; for % inhibition 5 hours post-treatment: 5 h post TPA
Excerpt: The tested compounds are: • (11β,16α)-9-fluoro-11-hydroxy-16,17-[1-methylethylidene bis(oxy)]-21-[1-oxo-[4-(nitrooxymethyl)benzoxy]]pregna-1,4-diene-3,20-dione, prepared as described in example 1; • Triamcinolone acetonide that is the reference compound for the compound of example 1; • (11β)-17-[(ethoxycarbonyl)oxy]-11-hydroxy-21-[1-oxo-[4-(nitrooxy methyl)benzoxy]]pregna-1,4-diene-3,20-dione, prepared as described in example 2; • Prednicarbate that is the reference compound for the compound of example 2; The tests were performed according to the methods described by Carlson et al., Agents Actions 17:197-204, 1985, and Lucas et al., J Pharmacol Exp Ther 304:1172-1180, 2003.
Groups of 5-9 male Swiss mice of 27±5 g were used. Inflammation dermatitis was induced by applying 2 μg/ear of TPA (Tetradecanoyl Phorbol Acetate) dissolved with ethanol absolute on the surface of either the dorsal aspect of both ears (20 μL/ear).
15 min before the application of TPA, mice received topically 20 μL of a solution of test compounds (0.39 nM in ethanol) per site applied directly on the skin of the left ear and the vehicle (ethanol 100%) on right ear. Vehicle-Vehicle treated mice were included as negative control group. Compounds were tested at equimolecular doses.
Animals were sacrificed at 3 h or 5 h post TPA dose. Equal sections of both ears were punched out immediately after and weighed. The percentage of change of the weight of left ear versus the weight of right ear was calculated for each animal, and the percentage of inhibition of change in weight of treated animals versus the change in weight of non-treated animals (negative control) was measured.

TNF-α = assay: TPA-induced increase of TNF-α in mouse ear; assay type: in vivo, Swiss male mice; details: for TNFalpha: ear homogenate, Mean ± S.E.M. (n = 10)
Method: (§1) A ear section of the right ear of mice were homogenized in 500 μl saline, and after centrifugation at 1,200 g for 15 min at 4° C., the PGE2 and TNF-α levels were determined by radioimmunoassay (Hoult et al., Methods Enzymol 1994) or by time-resolved fluoroimmunoassay ([…] et al., Int J. Immunopharmacol. 1995), respectively. Test compounds dissolved in the vehicle were applied topically 15 min before TPA administration.

[1] = system: dermal microvasculature, leukocyte/endothelial cells interaction; assay: Intravital microscopy of skin flap in mice (vessel diameter, rolling leukocytes); assay type: in vivo, C57B16 male mice; design: unit not given here; details: 3 nmol topical
Method: C57B16 male mice will be anaesthetized by intraperitoneal injection of a mixture of 10 mg/kg xylazine (MTC Pharmaceuticals, Cambridge, Ontario, Canada) and 200 mg/kg ketamine hydrochloride (Rogar/STB, London, Ontario, Canada). […] Therefore, after anaesthesia, mice will receive an intravenous injection of a fluorescent dye, rhodamine 6G (Sigma, St. Louis, Mo., USA, 0.3 mg/kg). […] Then, a midline abdominal incision will be performed, from the diaphragm, extending to the pelvic region. The skin will carefully be separated from the underlying tissue, but remained attached laterally, so the blood supply to the skin flap remained intact. The skin flap will be extended over a viewing pedestal to expose the dermal microvasculature and secured along the edges using 4.0 sutures. The exposed dermal tissues will be superfused with a bicarbonate-buffered saline pH 7.4, to avoid tissue dehydration. The microcirculation will be observed using an inverted microscope (Nikon) with a ×20 objective lens, and rhodamine 6G allows visualization and quantification of the number of rolling and adherent leukocytes, by epi-illumination at 510-560 nm, using a 590-nm emission filter. Single unbranched venules (20-40 μm in diameter) will be selected for the study. Images of the selected venule will be recorded for […], after a 15-min equilibration period and the end of this 5-min interval was considered as time 0. Leukocyte adherence will be determined upon video playback, on 100 μm vessel length (table 4). A leukocyte will be considered adherent to the endothelium if it remained stationary for 30 s or more. Leukocyte flux will be defined as the number of leukocytes per minute moving at a velocity less than that of erythrocytes, which passed a reference point in the venule. The changes in flux of rolling leukocytes will be evaluated as differences between the number of rolling leukocytes at each interval and the basal number of rolling leukocytes (table 5).
(§2) The tested compounds were applied topically dissolved in ethanol:sterile water (1:1) and applied at a final volume of 100 μl, five minutes after irritant contact dermatitis will be induced.

PGE2 = assay: TPA-induced increase of PGE2 in mouse ear; assay type: in vivo, Swiss male mice; details: for PGE2: ear homogenate, Mean ± S.E.M. (n = 10)
Method: as §1

[2] = system: irritant contact dermatitis induced by benzalkonium chloride; assay: Contact dermatitis induced by benzalkonium in mice (ear edema); assay type: in vivo; design: Ear edema (left ears) value: unit not given here
Method: Irritant contact dermatitis was induced by applying 5% benzalkonium chloride (100 μl per site, dissolved in olive oil:acetone, 1:5 v/v) on the dorsal aspect of the two ears. Ear diameter was measured as a parameter for edema formation, before and hourly for 6 hours after benzalkonium chloride application, using an electronic caliper. The last measurement was performed at 8-hours after dermatitis induction.
as §2
Ear edema (left ears) value for times 1 to 4 hours after irritant stimuli with benzalkonium chloride are represented in the table 3.

[3] = 0.48 μg/ear topical 15 min before TPA
[4] = 3 nmol topical, 1 hour after benzalkonium application
[5] = 3 nmol topical, 2 hours after benzalkonium application
[6] = 3 nmol topical, 3 hours after benzalkonium application
[7] = 3 nmol topical, 4 hours after benzalkonium application
[8] = 1 μg/ear topical 15 min before TPA

SMILES	% inhibition 3 hours post-treatment (TPA-induced ear oedema)	% inhibition 5 hours post-treatment (TPA-induced ear oedema)	Area under the curve (change in flux of rolling leucocytes) [1]	Area under the curve (change in vessel diameter) [1]	Ear edema (left ears) value [2, 4]	Ear edema (left ears) value [2, 5]	Ear edema (left ears) value [2, 6]	Ear edema (left ears) value [2, 7]	other results
CC1(C)O[C@@H]2C[C@H]3C4CCC5=CC(=O)C=C[C@]5(C)[C@@]4(F)[C@@H](O)C[C@]3(C)[C@]2(C(=O)COC(=O)c2ccc(CO[N+](=O)[O-])cc2)O1 (stereo partly drawn) [Example 1, (11β,16α)-9-fluoro-11-hydroxy-16,17-[1-methylethylidenebis(oxy)]-21-[1-oxo-[4-(nitrooxymethyl)benzoxy]]pregna-1,4-diene-3,20-dione]	22.70%	21.01%	247 ± 35	114 ± 32	0.018 ± 0.004	0.042 ± 0.007	0.042 ± 0.010	0.070 ± 0.007	TNFalpha (TNF-α; [3]): 149.5 ± 17.8 pg/mL; Inhibition of TNF-α release, result in words (TNF-α; versus prior art compound): inhibits the release of TNF-α in a higher potency than the prior art compound; PGE2 (PGE2; [3]): 53.2 ± 4.5 ng/mL; Reduction of PGE2 level / inflammation, result in words (PGE2; low dose versus higher dose of the parent compound): more effective in reducing the inflammation than the correspondent parent compound; Ear edema (left ears) value ([2]; 0.3 nmol topical, 1 hour after benzalkonium application): 0.026 ± 0.005; Ear edema (left ears) value ([2]; 0.3 nmol topical, 2 hours after benzalkonium application): 0.035 ± 0.008; Ear edema (left ears) value ([2]; 0.3 nmol topical, 3 hours after benzalkonium application): 0.053 ± 0.009; Ear edema (left ears) value ([2]; 0.3 nmol topical, 4 hours after benzalkonium application): 0.047 ± 0.007; Ear edema (left ears) value ([2]; 1 nmol topical, 1 hour after benzalkonium application): 0.020 ± 0.006; Ear edema (left ears) value ([2]; 1 nmol topical, 2 hours after benzalkonium application): 0.035 ± 0.008; Ear edema (left ears) value ([2]; 1 nmol topical, 3 hours after benzalkonium application): 0.057 ± 0.011; Ear edema (left ears) value ([2]; 1 nmol topical, 4 hours after benzalkonium application): 0.065 ± 0.010; Inhibition of ear edema, result in words ([2]; compared with triamcinolone acetonide, mainly at earlier times): dose-dependent effect in inhibiting ear edema with a better profile than triamcinolone acetonide
CCOC(=O)O[C@]1(C(=O)COC(=O)c2ccc(CO[N+](=O)[O-])cc2)CC[C@H]2[C@@H]3CCC4=CC(=O)C=C[C@]4(C)[C@H]3[C@@H](O)C[C@@]21C [Example 2, (11β)-17-[(ethoxycarbonyl)oxy]-11-hydroxy-21-[1-oxo-[4-(nitrooxymethyl)benzoxy]]pregna-1,4-diene-3,20-dione]	33.26%	–	300 ± 75	175 ± 70	0.025 ± 0.008	0.028 ± 0.009	0.040 ± 0.009	0.061 ± 0.007	–
CCOC(=O)O[C@]1(C(=O)COC(=O)CC)CC[C@H]2[C@@H]3CCC4=CC(=O)C=C[C@]4(C)[C@H]3[C@@H](O)C[C@@]21C [Prednicarbate, reference compound]	19.58%	–	412 ± 112	282 ± 71	–	–	–	–	–
CC1(C)O[C@@H]2C[C@H]3[C@@H]4CCC5=CC(=O)C=C[C@]5(C)[C@@]4(F)[C@@H](O)C[C@]3(C)[C@]2(C(=O)CO)O1 [Triamcinolone acetonide, reference compound]	14.90%	12.19%	376 ± 129	278 ± 78	0.037 ± 0.005	0.063 ± 0.010	0.041 ± 0.018	0.068 ± 0.022	TNFalpha (TNF-α; [8]): 158.0 ± 24.6 pg/mL; PGE2 (PGE2; [8]): 43.0 ± 3.8 ng/mL
